In patent publication US12472269B2, “Liver-specific inducible promoters and methods of use thereof” (ASKBIO INC., priority 2019, dated 2025):

T1: human CAR (Homo sapiens, UniProt Q14994)
T1 sequence (Q14994 1-352): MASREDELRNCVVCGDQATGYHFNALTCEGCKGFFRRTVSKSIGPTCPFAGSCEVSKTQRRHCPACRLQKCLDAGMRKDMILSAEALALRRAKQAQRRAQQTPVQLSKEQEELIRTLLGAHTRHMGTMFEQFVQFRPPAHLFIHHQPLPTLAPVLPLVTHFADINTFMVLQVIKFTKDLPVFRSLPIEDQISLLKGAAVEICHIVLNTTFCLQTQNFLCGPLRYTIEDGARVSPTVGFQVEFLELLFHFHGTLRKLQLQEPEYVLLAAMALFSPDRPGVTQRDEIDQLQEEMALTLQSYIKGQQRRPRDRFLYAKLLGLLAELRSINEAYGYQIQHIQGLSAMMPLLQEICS

B1: Human NR1x3-MinTK: 3× human NR1 region with MinTK minimal promoter, SEQ ID NO: 59 (nucleic acid)
DNA: ACTGTACTTTCCTGACCCTGAAGAGACTGTACTTTCCTGACCCTGAAGAGACTGTACTTTCCTGACCCTGAAGAGGATCCGGCCCCGCCCAGCGTCTTGTCATTGGCGAATTCGAACACGCAGATGCAGTCGGGGCGGCGCGGTCCGAGGTCCACTTCGCATATTAAGGTGACGCGTGTGGCCTCGAACACCGAGCGACCCTGCAGCGACCCGCTTAACAGCGTCAACAGCGTGCCGCAGATCTCGAGGAGCTTGGCGAGATTTTCAGGAGCT
modifications: Human NR1x3-Min TK

Key:
[1] = test system: Huh7 cells; test: EPO expression (ELISA of medium) from PB1-MinTK in Huh7 cells with CAR-containing plasmid, induction by CITCO; type: cell-based, human; conditions: 0.5 μM, 1 μM, 2 μM and 3 μM CITCO
From the text: • Huh7 cells which are a human liver cell line • DPBS: without CaCl2, without MgCl2 (Gibco, 14190-094) • DMEM (Sigma, D6546) • FBS (Sigma, F9665) • Pen-Strep (Sigma, P4333) • Promega Fugene-HD (E2311) • TCPOBOP (Sigma, T2320) • CITCO (Cayman Chemicals Company, 16027) • pcDNA6 plasmid which contains the β-galactosidase gene used as internal control for transfection efficiency (Thermofisher, V22020) • mouse CAR expression plasmid from Jouan et al, 2016 (BioCat GmbH, EX-Z4288-M51-10-GC). This was used as Huh7 is CAR deficient. • β-galactosidase substrate solution (Thermofisher, 75707/75710) • Pierce BCA kit (23225) • LARII (Dual Luciferase Reporter 1000 assay system, Promega, E1980) • EPO ELISA kit (Abcam, ab119522) Method: Day 1 • Cells were seeded onto a 48 well plate at a density of 25,000 cells/300 μl Day 2 • On the day of transfection, DNA to be transfected (CAR plasmid/PB1-MinTK operably linked with luciferase or EPO/pcDNA6 plasmid for internal control) was diluted to a 100 ng/μl stock solution. Per 48 Well Transfection: • 45 ng of DNA (15 ng of each plasmid, pcDNA6, CAR and test plasmid) was mixed with 4.1 μl of Optimem medium. • 0.5 μl of Fusion HD was mixed with 4 μl of Optimem medium. • These 2 solutions were mixed and incubated at room temperature for 15 minutes. • The final solution was then added to the well drop wise. • 3 hrs after transfection, the inducer TCPOBOP was added to the appropriate wells at the indicated concentration. Day 3 • 24 hrs after induction the media was removed from the cells. • The cells were washed once in 300 μl of DPBS • Cells were lysed using 100 μl of passive lysis buffer and incubation with rocking for 15 minutes • The cell debris was pelleted by centrifugation of the plate at max speed in a benchtop centrifuge for 1 min • For luciferase, 10 μl sample was transferred into white 96-well plate and luminescence measured by injection of 50 μl of LARII substrate. • β-galactosidase activity was measured as per manufacturer's instructions (Mammalian β-Galactosidase Assay Kit, 75707/75710, Thermo Scientific) using 25 μl of lysate. 25 μl of lysate was transferred into a microplate well and mixed with 25 μl of β-galactosidase Assay Reagent, equilibrated to room temperature. The mixture was incubated at 37° C. for 30 min and absorbance measured at 405 nm. • Protein concentration was measured as per manufacturer's instructions (Pierce™ BCA Protein Assay Kit, 23225/23227, Thermo Scientific) using 25 μl of lysate. 25 μl of lysate was transferred into a microplate well and mixed with 200 μl of working solution. The mixture was incubated at 37° C. for 30 min, cooled to room temperature and then absorbance measured around 562 nm. The protein concentration was calculated with respect to protein standard curve prepared from assaying standards with known protein concentration.
Transfections with PB1-MinTk-EPO were performed as described above with the exception that EPO is secreted into the medium. Therefore, medium was collected, and EPO concentration measured as per manufacturer's instructions (ab119522 Erythropoietin (EPO) Human ELISA Kit, Abcam) using an ELISA assay. 50 μl of medium was transferred to a pre-washed microplate wells and mixed with 50 μl of 1× Biotin Conjugated Antibody. The mixture was incubated at room temperature for 1 hour. The wells were washed, 100 μl of Streptavadin-HRP was added and the plate was incubated at room temperature for 15 minutes. The wells were washed and then 100 μl of TMB Substrate Solution. The mixture was incubated at room temperature for 10 minutes. The enzyme reaction was stopped by addition of 100 μl of Stop Solution and absorbance was read at 450 nm. The EPO concentration was calculated with respect to EPO standard curve prepared from assaying standards with known EPO concentration.
The PB1-MinkTK promoter was then used to drive expression of the protein EPO, which is of therapeutic interest. […]

[2] = test system: primary hepatocytes; test: Induction of PBREM variants by CITCO and flavone in primary hepatocytes; type: cell-based, human
From the text: (§1) In the earlier examples, variants of the promoters used contained a mouse PBREM element. To confirm our expectation that the human PBREM element could also be used, we also assessed the inducibility of the human PBREM; this is potentially relevant because one aim of this project is to provide inducible promoters for use in human gene therapy, and the human sequence may have some advantages. In addition, we also assessed human and mouse hybrids of the PBREM element to determine if we could modulate or improve the inducibility and background level of the promoters. Such new combinations would not be found in nature in any context, and would likely to have novel traits, e.g. background and induction level. The constructs were tested in the PGL4.10 backbone as previously described, and are listed below in Table 2. These were: Human NR1×3-Min TK (3× human NR1 region with MinTK minimal promoter); Human PBREM-minTK (human PBREM with MinTK minimal promoter); hNR1-mNF1-hNR2-Min TK (Human Mouse Human hybrid with MinTK minimal promoter); hNR1-mNFI mNR2-Min TK (Human Mouse Mouse hybrid with MinTK minimal promoter); mNR1-hNF1-mNR2-Min TK (Mouse Human Mouse hybrid with MinTK minimal promoter); mNR1-hNF1-hNR2-Min TK (Mouse Human Human hybrid with MinTK minimal promoter); hPB-SV40 (human PBREM with SV40 minimal promoter); and MHM-SV40 (Mouse Human Mouse hybrid with SV40 minimal promoter)—SEQ ID NOs: 59 to 66, respectively.
(§2) These constructs were tested in the Huh7 stable cell line and primary hepatocytes as previously described. In addition, to testing the constructs with the traditional human CAR activator CITCO we also tested the natural compound flavone. […] CITCO has been predicted to be relatively unstable in vivo, and there is no data available for its safety of use in humans, and is therefore preferred for use only in tissue culture. Furthermore, the in vivo results presented above used phenobarbital as the inducer. In some contexts the use of phenobarbital may be undesirable, even if at 10× less than the recommended dose (which appears to be possible in view of the data above). Therefore, flavone may be a more desirable inducer that mitigates any safety or regulatory issues.
(§3) Expression and induction from these promoters was assessed using both CITCO and flavone in both the Huh7 CAR expressing stable cell line and primary hepatocytes as previously described.

[3] = test system: Huh7 cell line stably expressing human CAR; test: Induction of PBREM variants by CITCO and flavone in Huh7 cell line stably expressing human CAR; type: cell-based
From the text: as §1, §2, §3

[4] = target: T1, human CAR; conditions: cited from earlier work
[5] = monomers compared with PB1 (FIG. 10), multimers with PB1-2 (FIG. 12)
[6] = monomers compared with PB1 (FIG. 9), multimers with PB1-2 (FIG. 11)

Molecule	induction ([2]; CITCO and flavone)	background [2, 5]	induction ([3]; CITCO and flavone)	background [3, 6]	activation of human CAR [4]	also measured
CMV-MP: CMV minimal promoter driving EPO in pGL4.10, SEQ ID NO: 54 [reference compound]	–	–	–	–	–	change of EPO expression on addition of CITCO [1]: does not change the EPO expression
MHM hybrid: Mouse Human Mouse hybrid PBREM element (SEQ ID NO: 74), tested with Min-Tk and SV40 minimal promoters (DNA TCTGTACTTTCCTGACCTTGAAGAGGTGGCACCATCAACTTGCCTGACACC; expressed or natural sequence)	good induction	lower background	good induction	lower background	–	overall activity / expression level [2, 5]: lower overall activity; overall activity / expression level [3, 6]: lower overall activity
O=c1cc(-c2ccccc2)oc2ccccc12 [flavone, reference compound]	–	–	–	–	previously been reported to activate human CAR	concentration demonstrated suitable to induce expression ([3]; administered to cells): 30 µM
Clc1cnc(Oc2ccc(Oc3ncc(Cl)cc3Cl)cc2)c(Cl)c1 [TCPOBOP, 1,4-Bis[2-(3,5-dichloropyridyloxy)]benzene]	–	–	–	–	does not activate human CAR	–
hPB: human PBREM element (SEQ ID NO: 2), tested with Min-TK and SV40 minimal promoters (DNA ACTGTACTTTCCTGACCCTGAAGAGGTGGCAGCATGGACTTTCCTGAACCA; expressed or natural sequence; listed as Homo sapiens)	–	–	–	–	–	performance (inducibility and background) compared with PB1 ([2]; CITCO and flavone, FIG. 10): almost identical manner to the mouse PBREM (PB1); performance (inducibility and background) compared with PB1 ([3]; CITCO and flavone, FIG. 9): almost identical manner to the mouse PBREM (PB1)
B1	less so in the primary cells	relatively high background	only induced in the stable cell line	relatively high background	–	–
